In one data set the target is T1, α2A-AR (Homo sapiens, UniProt P08913).
T1 construct: expressed in transfected cells; stably expressing α2A-AR/Gα16
T1 sequence (P08913 1-465): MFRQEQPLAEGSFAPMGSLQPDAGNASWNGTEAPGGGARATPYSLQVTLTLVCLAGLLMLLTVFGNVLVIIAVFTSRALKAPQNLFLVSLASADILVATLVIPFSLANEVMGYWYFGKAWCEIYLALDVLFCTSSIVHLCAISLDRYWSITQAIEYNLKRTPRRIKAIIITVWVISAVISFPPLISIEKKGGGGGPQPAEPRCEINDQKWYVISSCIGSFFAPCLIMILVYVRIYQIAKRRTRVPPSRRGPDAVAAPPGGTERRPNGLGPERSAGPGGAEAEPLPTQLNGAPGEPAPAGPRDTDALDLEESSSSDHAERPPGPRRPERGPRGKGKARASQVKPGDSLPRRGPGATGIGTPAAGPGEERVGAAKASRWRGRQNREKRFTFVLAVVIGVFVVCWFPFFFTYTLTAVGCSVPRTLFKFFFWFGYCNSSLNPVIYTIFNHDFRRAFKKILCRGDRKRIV
Kind of data set: α2A-AR antagonist assay (calcium flux, Fluo-4, FlexStation II). The settings on record: antagonistic activity against agonist UK14304 in cells stably expressing α2A-AR/Ga16. The class given is cell-based. An excerpt: By establishing a cell line co-transfected with the target receptor and Ga16, the receptor can be activated to cause the activation of Gα16 protein, which in turn activates phospholipase C (PLC) to produce IP3 and DAG. IP3 can bind to the IP3 receptors on the endoplasmic reticulum and mitochondria in the cell, thereby causing the release of intracellular calcium. Therefore, measuring the changes in intracellular calcium can be used as a method to detect the activation state of the target receptor. Fluo-4/AM is a calcium fluorescent probe indicator used to measure calcium ions. As a non-polar lipid-soluble compound, after entering the cell, the AM group dissociates under the action of cell lipases and releases Fluo-4; since Fluo-4 is a polar molecule that is not easy to pass through the lipid bilayer membrane, it can keep in the cell for a long time. Finally, the level of Ga protein activation can be reflected by measuring the excited fluorescence intensity.
Before the test, the test compound was dissolved in DMSO to prepare a stock solution, which was diluted with culture medium to the required concentration when used.

Data set [1] is described as follows: Tissue distribution test in mice. The settings on record: gavage 10 mg/kg. It is filed as in vivo. As for the experimental part: Mice were fasted for more than 12 h and had free access to water. Table 3 Experimental Scheme for tissue distribution of Compound C27 in mice
Mice were fasted for more than 12 h and had free access to water.
• (1) Tissue distribution test in mice: The animals in each group were anesthetized and killed 2 h after administration. The brain, pancreas, heart, liver, and kidney tissues were collected by dissection, washed with physiological saline, and stored in a -20 °C refrigerator for testing. At the same time, 0.3 mL of whole blood was collected and placed in an EDTA-K2 anticoagulant tube. The blood was separated by centrifugation at 11,000 rpm for 5 min and stored in a -20 °C refrigerator for testing.
The concentration of unchanged drug in plasma and tissues was determined.
(2) Tissue distribution test of compound C27 in mice: At corresponding time points (0.25, 2 and 8 h) after gavage administration, mice were bled to death through the abdominal aorta. Brain, heart, liver, lung, pancreas and kidney tissues were immediately collected by dissection, and part of the plasma was collected. The operation was carried out in an ice water bath.
Centrifugation conditions: 11000 rpm for 5 min to separate plasma (about 200 µL).

[2] abbreviates: relative ratio of tissue distribution concentration to blood concentration.

Consider `O[C@H]1CC[C@H]2CN3CCc4c([nH]c5ccccc45)[C@@H]3C[C@@H]2[C@H]1c1nc(Cc2ccccc2)no1` [Compound C1], for which, at α2A-AR, the IC50 was below 0.1 µM. Also, in data set [1] (setting [2]), the “brain tissue distribution compared with yohimbine” value is “lower brain tissue distribution than yohimbine”.

With `CC(c1ccccc1)c1noc([C@@H]2[C@H]3C[C@H]4c5[nH]c6ccccc6c5CCN4C[C@@H]3CC[C@@H]2O)n1` (some centres unmarked) [Compound C2], at α2A-AR, the IC50 lay within 0.3 to 0.5 µM.

As for `O[C@H]1CC[C@H]2CN3CCc4c([nH]c5ccccc45)[C@@H]3C[C@@H]2[C@H]1c1nc(CCc2ccccc2)no1` [Compound C3], the concentration for half-maximal inhibition (IC50) on α2A-AR fell in the range of 0.1 to 0.3 µM.

For the compound `COc1ccccc1Cc1noc([C@@H]2[C@H]3C[C@H]4c5[nH]c6ccccc6c5CCN4C[C@@H]3CC[C@@H]2O)n1` [Compound C4], the IC50 at α2A-AR is 0.5 to 2 µM.

With `COc1cccc(Cc2noc([C@@H]3[C@H]4C[C@H]5c6[nH]c7ccccc7c6CCN5C[C@@H]4CC[C@@H]3O)n2)c1` [Compound C5], at α2A-AR, the IC50 was 0.1 to 0.3 µM.

For the compound `COc1ccc(Cc2noc([C@@H]3[C@H]4C[C@H]5c6[nH]c7ccccc7c6CCN5C[C@@H]4CC[C@@H]3O)n2)cc1` [Compound C6], the 50% inhibitory concentration (IC50) on α2A-AR is below 0.1 µM. Further, the “brain tissue distribution compared with yohimbine” value in data set [1] (setting [2]) is “lower brain tissue distribution than yohimbine”.

Consider `O[C@H]1CC[C@H]2CN3CCc4c([nH]c5ccccc45)[C@@H]3C[C@@H]2[C@H]1c1nc(Cc2ccccc2F)no1` [Compound C7], for which the IC50 on α2A-AR fell in the range of 0.5 to 2 µM.

`O[C@H]1CC[C@H]2CN3CCc4c([nH]c5ccccc45)[C@@H]3C[C@@H]2[C@H]1c1nc(Cc2cccc(F)c2)no1` [Compound C8]: at α2A-AR, the half-maximal inhibitory concentration (IC50) was 0.3 to 0.5 µM.

As for `O[C@H]1CC[C@H]2CN3CCc4c([nH]c5ccccc45)[C@@H]3C[C@@H]2[C@H]1c1nc(Cc2ccc(F)cc2)no1` [Compound C9], on α2A-AR, the IC50 was in the range of 0.5 to 2 µM.

On to `O[C@H]1CC[C@H]2CN3CCc4c([nH]c5ccccc45)[C@@H]3C[C@@H]2[C@H]1c1nc(Cc2ccccc2Cl)no1` [Compound C10], for which, at α2A-AR, the IC50 lay within 0.5 to 2 µM.

On to `O[C@H]1CC[C@H]2CN3CCc4c([nH]c5ccccc45)[C@@H]3C[C@@H]2[C@H]1c1nc(Cc2cccc(Cl)c2)no1` [Compound C11], for which, on α2A-AR, the IC50 was 0.5 to 2 µM.

Turning to `O[C@H]1CC[C@H]2CN3CCc4c([nH]c5ccccc45)[C@@H]3C[C@@H]2[C@H]1c1nc(Cc2c(Cl)cccc2Cl)no1` [Compound C12], at α2A-AR, the IC50 is 0.1 to 0.3 µM.

For the compound `O[C@H]1CC[C@H]2CN3CCc4c([nH]c5ccccc45)[C@@H]3C[C@@H]2[C@H]1c1nc(Cc2ccc(Cl)c(Cl)c2)no1` [Compound C13], the IC50 on α2A-AR lay in the range of 0.5 to 2 µM. The “brain tissue distribution compared with yohimbine” value in data set [1] (setting [2]) was “lower brain tissue distribution than yohimbine”.

As to `O[C@H]1CC[C@H]2CN3CCc4c([nH]c5ccccc45)[C@@H]3C[C@@H]2[C@H]1c1nc(Cc2ccccc2Br)no1` [Compound C14], the IC50 on α2A-AR was below 0.1 µM.

In the case of `O[C@H]1CC[C@H]2CN3CCc4c([nH]c5ccccc45)[C@@H]3C[C@@H]2[C@H]1c1nc(Cc2cccc(Br)c2)no1` [Compound C15], the IC50 on α2A-AR was below 0.1 µM.

As for `O[C@H]1CC[C@H]2CN3CCc4c([nH]c5ccccc45)[C@@H]3C[C@@H]2[C@H]1c1nc(Cc2ccc(Br)cc2)no1` [Compound C16], the IC50 on α2A-AR is 0.5 to 2 µM.

Regarding `N#Cc1ccccc1Cc1noc([C@@H]2[C@H]3C[C@H]4c5[nH]c6ccccc6c5CCN4C[C@@H]3CC[C@@H]2O)n1` [Compound C17], the IC50 on α2A-AR fell in the range of 0.1 to 0.3 µM.

Take `N#Cc1cccc(Cc2noc([C@@H]3[C@H]4C[C@H]5c6[nH]c7ccccc7c6CCN5C[C@@H]4CC[C@@H]3O)n2)c1` [Compound C18]: the IC50 on α2A-AR is below 0.1 µM.

For `O[C@H]1CC[C@H]2CN3CCc4c([nH]c5ccccc45)[C@@H]3C[C@@H]2[C@H]1c1nc(CN2CCOCC2)no1` [Compound C20], the IC50 at α2A-AR was in the range of 0.1 to 0.3 µM.

Consider `O[C@H]1CC[C@H]2CN3CCc4c([nH]c5ccccc45)[C@@H]3C[C@@H]2[C@H]1c1nc(CC2CC2)no1` [Compound C21], for which, at α2A-AR, the IC50 was 0.5 to 2 µM.

Turning to `COCc1noc([C@@H]2[C@H]3C[C@H]4c5[nH]c6ccccc6c5CCN4C[C@@H]3CC[C@@H]2O)n1` [Compound C22], the IC50 on α2A-AR fell in the range of 0.1 to 0.3 µM.

On to `O[C@H]1CC[C@H]2CN3CCc4c([nH]c5ccccc45)[C@@H]3C[C@@H]2[C@H]1c1nc(-c2ccccc2)no1` [Compound C23], for which, on α2A-AR, the IC50 was in the range of 0.3 to 0.5 µM.

For `O[C@H]1CC[C@H]2CN3CCc4c([nH]c5ccccc45)[C@@H]3C[C@@H]2[C@H]1c1nc(-c2ccncc2)no1` [Compound C24], the IC50 at α2A-AR fell in the range of 0.5 to 2 µM.

As to `O[C@H]1CC[C@H]2CN3CCc4c([nH]c5ccccc45)[C@@H]3C[C@@H]2[C@H]1c1nc(C2CCCCC2)no1` [Compound C25], the 50% inhibitory concentration (IC50) at α2A-AR was in the range of 0.3 to 0.5 µM.

In the case of `Cc1noc([C@@H]2[C@H]3C[C@H]4c5[nH]c6ccccc6c5CCN4C[C@@H]3CC[C@@H]2O)n1` [Compound C26], the 50% inhibitory concentration (IC50) at α2A-AR fell in the range of 0.1 to 0.3 µM.

Turning to `NC(=O)c1ccc(Cc2noc([C@@H]3[C@H]4C[C@H]5c6[nH]c7ccccc7c6CCN5C[C@@H]4CC[C@@H]3O)n2)cc1` [Compound C27], the IC50 at α2A-AR is below 0.1 µM. Also, the pancreatic distribution entry in data set [1] is listed as “pancreatic distribution characteristics comparable to those of compound C19”. The plasma exposure result in data set [1] (compared with yohimbine) was “equivalent to that of yohimbine”. For the same compound, in data set [1] (setting [2]), the “brain tissue distribution compared with yohimbine” value is recorded as “lower brain tissue distribution than yohimbine”; the “brain tissue distribution, times lower than that of yohimbine” value is “about two hundred and seventy times lower”.

As to `CN(C)S(=O)(=O)c1ccc(Cc2noc([C@@H]3[C@H]4C[C@H]5c6[nH]c7ccccc7c6CCN5C[C@@H]4CC[C@@H]3O)n2)cc1` [Compound C28], at α2A-AR, the IC50 was below 0.1 µM.

In the case of `COC(=O)c1ccc(Cc2noc([C@@H]3[C@H]4C[C@H]5c6[nH]c7ccccc7c6CCN5C[C@@H]4CC[C@@H]3O)n2)cc1` [Compound C29], the IC50 at α2A-AR was in the range of 0.1 to 0.3 µM.

With `O=C(O)c1ccc(Cc2noc([C@@H]3[C@H]4C[C@H]5c6[nH]c7ccccc7c6CCN5C[C@@H]4CC[C@@H]3O)n2)cc1` [Compound C30], the IC50 at α2A-AR was 0.3 to 0.5 µM.

Regarding `O[C@H]1CC[C@H]2CN3CCc4c([nH]c5ccccc45)[C@@H]3C[C@@H]2[C@H]1c1nc(Cc2nc3ccccc3o2)no1` [Compound C31], at α2A-AR, the IC50 lay in the range of 0.3 to 0.5 µM.

`O[C@H]1CC[C@H]2CN3CCc4c([nH]c5ccccc45)[C@@H]3C[C@@H]2[C@H]1c1nc(Cc2cccc(OC(F)(F)F)c2)no1` [Compound C32]: the IC50 at α2A-AR is below 0.1 µM.

Turning to `O[C@H]1CC[C@H]2CN3CCc4c([nH]c5ccccc45)[C@@H]3C[C@@H]2[C@H]1c1nc(Cc2cccc(C(F)(F)F)c2)no1` [Compound C33], the IC50 at α2A-AR fell in the range of 0.1 to 0.3 µM.

In the case of `CN(C)c1cccc(Cc2noc([C@@H]3[C@H]4C[C@H]5c6[nH]c7ccccc7c6CCN5C[C@@H]4CC[C@@H]3O)n2)c1` [Compound C34], the IC50 on α2A-AR lay within 0.1 to 0.3 µM.

As to `CN(C)C(=O)c1ccc(Cc2noc([C@@H]3[C@H]4C[C@H]5c6[nH]c7ccccc7c6CCN5C[C@@H]4CC[C@@H]3O)n2)cc1` [Compound C35], the IC50 on α2A-AR was 0.1 to 0.3 µM.

In general, IC50 refers to the point on the concentration scale where inhibition reaches its midpoint.
